Patent US7427599B2, “Biologically active peptide comprising Tyrosyl-seryl-valine(YSV)” (CMS Peptides Patent Holding Company Limited, priority 2003, dated 2008)
Marks after values point to notes of the source that are not given here. Peptide text beside a SMILES is read from it.

Experiments:
[1] = system: A549 human pulmonary carcinoma; experiment: A549 human pulmonary carcinoma xenograft in nude mice; type: in vivo, BALB/c (nu/nu) athymic nude mice; conditions: for Tumor inhibition index (%) / Tumor volume (cm^3) / Tumor weight: 40 days
Experimental: Healthy BALB/c (nu/nu) athymic nude mice (SPF, 4-5 weeks old, weighting 18-22 g) were purchased from Shanghai Tumor Academe of China Medical Academy of Science. In the first experiment, female was used. In the second experiment, male was used.
Select A549 human pulmonary carcinoma xenografts of diameter longer than 1 cm with good growth on nude mice. Aseptically excise the tumor mass, cut into pieces of 2-4 mm^3 and submerged in RPMI1640. Pulmonary carcinoma nude mice model was prepared by transplanting the tumor mass hypodermally to the back of healthy nude mice near to the neck via an incision at the ventral thorax.
The nude mice bearing A549 xenografts were randomly divided into groups of: saline control (0.2 ml/day), YSV groups of different dosages, and Cy control (0.2 mg/kg/day). The test substances were dissolved in 0.2 ml saline and administered intraperitoneally to the mice starting from the day after the transplantation, once per day for 40 consecutive days.
The general condition of the mice was observed daily. The mice were weighed every 3-4 days and the volume of the tumor was measured:
V=(⅙)πXYZ, where X, Y, and Z were the diameters of the tumor on the 3 planes.
The day after the last injection, the tumors were excised, weighted, and the volume measured. The tumors were examined for signs of necrosis. Tumor inhibition index=(average tumor weight of saline group−average tumor weight of test group)/average tumor weight of saline group×100%)
Statistical analysis was performed with SPSS software using one-way ANOVA analysis.

[2] = system: Human cervical carcinoma Hela cells; experiment: Inhibition of growth of human cervical carcinoma Hela cells in vitro (MTT); type: cell-based; conditions: for % inhibition / OD570 nm: 48 hours; for OD570 nm: MTT, negative control 0.24 ± 0.01
Experimental: Human cervical carcinoma Hela cells at logarithmic growth phase were detached by incubating for 2 to 3 minutes with PBS containing 0.05% trypsin and 0.02% EDTA. The cells were examined by inverted phase contrast microscopy. The supernatant was removed after cytoplasm pyknosis and dilatation of cell compartment were observed. A few milliliters of RPMI-1640 medium with 10% FBS were added to terminate the digestion. The cells were harvested by gently blowing with a pipette. The cells were collected by centrifugation at 150 g for 10 minutes, and washed twice by cold Hank's solution with re-suspension and centrifugation. The cell pellets were re-suspended in RPMI-1640 medium with 10% FBS and adjusted to density of 5×10^4/ml. The treated cells were placed onto a 96 wells cell culture plate, 100 μl/well. The cells were incubated for 24 hours at 37° C., 5% CO2 for re-activation and attachment.
The experiment included two testing groups with different concentrations of YSV in culture medium, and a negative control with culture medium only. The final concentrations of YSV were 10 μg/ml and 5 μg/ml. Each group contained five parallel wells. 100 μl/well testing solution was added to the treated cells. The cells were incubated for 48 hours at 37° C., 5% CO2.
The cells were pelleted by centrifugation at 150 g for 10 minutes. The supernatant was discarded and 100 μl/well MTT of 0.5 mg/ml in RPMI-1640 was added to the cell pellets and the cells were re-suspended by shaking for 2 minutes. Incubation was continued for 4 hours. The supernatant was discarded after centrifugation at 150 g for 10 minutes. After blotted dry by filter paper, 100 μl/well 40 mM HCl-2-propanol was added to the cell pellets and shaken for 3 minutes. OD570 nm of each well referenced at 630 nm was obtained by using ELISA reader.

human leukemia K562 = experiment: Growth of nude mice-transplanted human leukemia K562; type: in vivo, nude mice (BALB/C (nu/nu))
Experimental: K-562 cells were maintained in RPMI-1640 medium with 10% FBS at 37° C., 5% CO2.
K562 cells at log phase were adjusted to 1.6×10^8/ml with RPMI-1640. 0.1 ml of this was subcutaneously injected to the right flank of the healthy nude mice to form the leukemia mice model.
The mice bearing human leukemia K562 cells were randomized into groups of: saline control (0.2 ml/day), and YSV (160 μg/kg/day). The test substance was dissolved in 0.2 ml saline and administration of the test substance by intraperitoneal injection was started on the next day after the K562 inoculation, once per day for 30 consecutive days.
The general conditions of the mice was examined daily and the tumor size was measured in every 3-4 days. Tumor volume (mm^3) V=(⅙)πXYZ where X, Y, and Z were the diameters of the tumor on the three planes.
On the next day after the last test substance administration, the tumors were excised, the weight of tumor was recorded and the tumor volume was measured. Tumor growth inhibition index (%)=(mean tumor weight of control group—mean tumor weight of treatment group)/mean tumor weight of control group×100)
All the data were shown as arithmetic mean ±SD. The data were analyzed using the ANOVA test of the SPSS software. P<0.05 was accepted as having statistical significance.

CC(C)[C@H](NC(=O)[C@H](CO)NC(=O)[C@@H](N)Cc1ccc(O)cc1)C(=O)O [YSV, L-Tyrosyl-L-seryl-L-valine] (H-Tyr-Ser-Val-OH)
Tumor inhibition index (%) ([1]; experiment 1, female nude mice, 160 μg/kg/day i.p.): 32.8% | Tumor volume (cm^3) ([1]; experiment 1, female nude mice, 160 μg/kg/day i.p., saline 1.87 ± 1.10): 0.92 ± 0.79* cm^3 | Tumor weight ([1]; experiment 1, female nude mice, 160 μg/kg/day i.p., saline 2.49 ± 1.02): 1.67 ± 0.97 g | Tumor inhibition index (%) ([1]; experiment 1, female nude mice, 320 μg/kg/day i.p.): 32.2% | Tumor volume (cm^3) ([1]; experiment 1, female nude mice, 320 μg/kg/day i.p., saline 1.87 ± 1.10): 0.84 ± 0.45* cm^3 | Tumor weight ([1]; experiment 1, female nude mice, 320 μg/kg/day i.p., saline 2.49 ± 1.02): 1.69 ± 0.70 g | Tumor inhibition index (%) ([1]; experiment 1, female nude mice, 640 μg/kg/day i.p.): 37.4% | Tumor volume (cm^3) ([1]; experiment 1, female nude mice, 640 μg/kg/day i.p., saline 1.87 ± 1.10): 1.17 ± 0.84 cm^3 | Tumor weight ([1]; experiment 1, female nude mice, 640 μg/kg/day i.p., saline 2.49 ± 1.02): 1.56 ± 1.08 g | Tumor inhibition index (%) ([1]; experiment 2, male nude mice, 160 μg/kg/day i.p.): 50.8% | Tumor volume (cm^3) ([1]; experiment 2, male nude mice, 160 μg/kg/day i.p., saline 1.34 ± 0.69): 0.78 ± 0.41 cm^3 | Tumor weight ([1]; experiment 2, male nude mice, 160 μg/kg/day i.p., saline 1.51 ± 0.79): 0.74 ± 0.31 g | inhibition of growth of A549 xenograft in nude mice (conclusion) ([1]; suitable dosages, p<0.05 vs saline): able to inhibit the growth of nude mice-transplanted A549 human pulmonary carcinoma xenograft | inhibition of growth of Hela cells in vitro (conclusion) ([2]; 5 μg/ml to 10 μg/ml, p<0.05): able to inhibit the growth of human cervical carcinoma Hela cells in vitro | % inhibition ([2]; 5 μg/ml): 18.4% | OD570 nm ([2]; 5 μg/ml): 0.22 ± 0.00 | % inhibition ([2]; 10 μg/ml): 19.6% | OD570 nm ([2]; 10 μg/ml): 0.22 ± 0.01 | Inhibition index (%) (human leukemia K562; 160 μg/kg/day intraperitoneal, 30 consecutive days, from tumor weight vs saline): 37.9% | Tumor weight (human leukemia K562; 160 μg/kg/day intraperitoneal, 30 consecutive days, saline 4.75 ± 2.21): 2.95 ± 1.58 g | Tumor volume (cm3) (human leukemia K562; 160 μg/kg/day intraperitoneal, 30 consecutive days, saline 5.08 ± 2.15): 3.15 ± 1.74 cm3 | inhibition of growth of nude mice-transplanted K562 (conclusion) (human leukemia K562; suitable dosage, p<0.05 vs saline): able to inhibit the growth of nude mice-transplanted significantly human leukemia K562
